Paper PMC8162404, “Proteomimetic surface fragments distinguish targets by function” (Chemical Science, 2020)
Where two headings read alike, the source gives them in different places.

Assays:
Assay in all cases: Pull-down assay with immobilized protein and LSM libraries
[1] = target: T1, Gal-1 (Homo sapiens, UniProt P09382); format: binding; details: 1:1 binding assumed, read-out: Surface mapping KD (apparent)
T1 construct: made in house; host or cells: E. coli BL21(DE3)
Summary of the method: (§1)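 Buffers were HEPES pH 7.4 with 150 mM NaCl, plus 1 mM TCEP and 1 mM CaCl2 (50 mM HEPES) for S100A4 and S100B, 1 mM TCEP for Gal-1, and no additive for RecQ-WH. Immobilized protein at 64 µM was equilibrated 30 min with the LSM sublibrary, and unbound probes were measured by LC-MS.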

[2] = target: T2, S100B (Homo sapiens, UniProt P04271); format: binding; details: 1:1 binding assumed, read-out: Surface mapping KD (apparent)
T2 construct: made in house; host or cells: Escherichia coli BL21(DE3)
T2 sequence (P04271 1-92): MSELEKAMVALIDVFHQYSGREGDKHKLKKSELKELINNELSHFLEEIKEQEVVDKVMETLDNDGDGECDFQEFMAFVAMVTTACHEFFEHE
Summary of the method: as §1

[3] = target: T3, CaM (Bos taurus, UniProt P62157); format: binding, bovine; details: 1:2 stoichiometry assumed, read-out: Surface mapping KD (apparent)
T3 construct: made in house; host or cells: E. coli BL21 (DE3)
Experimental: Pull-down assays with immobilized test proteins and foldameric LSM libraries were carried out. Proteins were equilibrated with LSM probes, and equilibrium bound fractions (FB) were determined from the unbound fractions measured by HPLC-MS methods. Hits were corrected with background binding of the resin. The protocol allowed all binding events to equilibrate irrespective of affinity, specificity, and binding kinetics. This was essential to judge overall druggability and promiscuity. Importantly, the concentration of protein and the total concentration of foldameric LSMs were equimolar, which minimized competition between the probes. This experimental setup approximated independent binding of individual library members. Results were visualized as heat maps of dissociation constants (Fig. 3).
Pull-down assay and data analysis
Pull-down assay. LSM sublibraries were screened separately as previously described.(2) Experiments were performed in the following buffers: (i) 20 mM pH 7.4 HEPES, 150 mM NaCl, 5 mM CaCl2 for CaM; (ii) 50 mM pH 7.4 HEPES, 150 mM NaCl, 1 mM TCEP, 1 mM CaCl2 for S100 proteins; (iii) 20 mM pH 7.4 HEPES, 150 mM NaCl, 1 mM TCEP for Gal-1 and (iv) 20 mM pH 7.4 HEPES, 150 mM NaCl for RecQ-WH. Assays were performed in paper filter spin cups (Thermo Scientific) with sample volumes of 100 µl. Hexahistidine-tagged proteins were immobilized on previously washed Co-NTA resin (TALON, Takara Bio USA, Inc., […]
LSM sublibrary was added, in which each of the 64 library members were used at a concentration of 1 µM. Samples were incubated at room temperature for 30 min with shaking at 100 rpm. Then, samples were centrifuged at 1000 rpm for 2 min and washed with 100 µl pull-down buffer to remove unbound compounds.
The control experiments were performed using the same compounds and the resin but without the immobilized protein. In case of competitive assays, competitor peptides were added to LSM sublibrary samples in 200 µM final concentration. In the case of Gal-1, lactose (competitor) was used in a concentration of 10 mM. Experiments were performed at least twice. Mean […]
LC-MS methods and parameters. HPLC/ESI-MS analysis was used to characterize the samples from the pull-down assay. LC-MS analysis was performed with a Thermo Scientific Dionex UltiMate 3000 HPLC system interfaced to an LTQ ion trap mass spectrometer (Thermo Electron Corp., San Jose, CA, USA). Samples were injected onto an Aeris Widepore XB-C18 (250 x 4.6 mm) analytical HPLC column using gradient elution 5-80 % solution B during 25 minutes. For pull-down samples, eluent composition was 0.1% acetic acid in distilled water (Solution A) and 0.1% acetic acid in acetonitrile (solution B). Mass spectra were acquired in full scan mode from 200 to 2000 m/z range. For overlapping peaks, selective reaction monitoring (SRM) was […]
MS data analysis. Thermo Xcalibur 2.2 software was used for peak identification and integration. The majority of the foldameric fragments could be resolved independently via HPLC-MS/MS measurements based on molecular weight, MS fragmentation pattern and retention time. Peaks of some foldamers with β3-hIle or β3-hLeu in position R2 could not be resolved, these were integrated and averaged. In the processing method, each sample component was associated to a chromatographic peak based on previously identified mass (m/z) and retention time (ref (2) and Table S7-10). Using ICIS peak detection algorithm, the general detection and integration criteria were: smoothing points: 5, baseline window: 80, area noise factor: 5, peak noise factor: 10. Using these processing setups, all raw data files were reprocessed together and analyzed. Errors in peak identification during the automatic processing were corrected manually.
Calculation of the discussed parameters
1. Bound fractions (FB.) were calculated from the HPLC-MS intensity loss of the LSM probes compared to the control where no protein was immobilized to the resin: […]

T1 sequence (P09382 whole entry): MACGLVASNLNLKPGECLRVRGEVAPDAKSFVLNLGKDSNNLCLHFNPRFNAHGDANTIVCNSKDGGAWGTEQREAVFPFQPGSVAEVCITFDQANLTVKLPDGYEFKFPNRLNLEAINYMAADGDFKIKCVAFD

## CSCC[C@@H](CC(=O)N[C@H]1CCC[C@@H]1C(=O)N[C@H]1CCC[C@@H]1C(=O)N[C@H](CC(=O)N[C@H]1CCC[C@@H]1C(=O)N[C@H]1CCC[C@@H]1C(N)=O)Cc1ccc(O)cc1)NC(=O)[C@H]1CCC[C@@H]1NC(=O)[C@H]1CCC[C@@H]1N [H12 MY]
[1]; H12 library
  Kd: 286 µM
[2]; H12 library
  Kd: 102 µM
[3]; H12 library
  Kd: 178 µM

## CC(C)C[C@@H](CC(=O)N[C@H]1CCC[C@@H]1C(=O)N[C@H]1CCC[C@@H]1C(N)=O)NC(=O)[C@H]1CCC[C@@H]1NC(=O)[C@H]1CCC[C@@H]1NC(=O)C[C@H](CO)NC(=O)[C@H]1CCC[C@@H]1NC(=O)[C@H]1CCC[C@@H]1N [H12 SL]
[2]; H12 library
  Kd: 419 µM
[3]; H12 library
  Kd: 252 µM

## C[C@@H](O)[C@@H](CC(=O)N[C@H]1CCC[C@@H]1C(=O)N[C@H]1CCC[C@@H]1C(=O)N[C@H](CC(=O)N[C@H]1CCC[C@@H]1C(=O)N[C@H]1CCC[C@@H]1C(N)=O)Cc1c[nH]c2ccccc12)NC(=O)[C@H]1CCC[C@@H]1NC(=O)[C@H]1CCC[C@@H]1N [H12 TW]
[2]; H12 library
  Kd: 113 µM
[3]; H12 library
  Kd: 25 µM

## C[C@@H](CC(=O)N[C@H]1CCC[C@@H]1C(=O)N[C@H]1CCC[C@@H]1C(N)=O)NC(=O)[C@H]1CCC[C@@H]1NC(=O)[C@H]1CCC[C@@H]1NC(=O)C[C@H](Cc1ccccc1)NC(=O)[C@H]1CCC[C@@H]1NC(=O)[C@H]1CCC[C@@H]1N [H12 FA]
[1]; H12 library
  Kd: 341 µM
[2]; H12 library
  Kd: 116 µM
[3]; H12 library
  Kd: 496 µM

## CSCC[C@@H](CC(=O)N[C@H]1CCC[C@@H]1C(=O)N[C@H]1CCC[C@@H]1C(=O)N[C@H](CC(=O)N[C@H]1CCC[C@@H]1C(=O)N[C@H]1CCC[C@@H]1C(N)=O)C(C)C)NC(=O)[C@H]1CCC[C@@H]1NC(=O)[C@H]1CCC[C@@H]1N [H12 MV]
[1]; H12 library
  Kd: 247 µM
[2]; H12 library
  Kd: 127 µM
[3]; H12 library
  Kd: 342 µM

## C[C@@H](CC(=O)N[C@H]1CCCC[C@@H]1C(=O)N[C@H]1CCCC[C@@H]1C(=O)N[C@@H](CCCCN)CC(=O)N[C@H]1CCCC[C@@H]1C(N)=O)NC(=O)[C@H]1CCCC[C@@H]1N [H14 AK]
[2]; H14 library
  Kd: 180 µM
[3]; H14 library
  Kd: 181 µM

## NC(=O)C[C@@H](CC(=O)N[C@H]1CCC[C@@H]1C(=O)N[C@H]1CCC[C@@H]1C(=O)N[C@H](CC(=O)N[C@H]1CCC[C@@H]1C(=O)N[C@H]1CCC[C@@H]1C(N)=O)Cc1c[nH]c2ccccc12)NC(=O)[C@H]1CCC[C@@H]1NC(=O)[C@H]1CCC[C@@H]1N [H12 NW]
[2]; H12 library
  Kd: 155 µM
[3]; H12 library
  Kd: 63 µM

## CSCC[C@@H](CC(=O)N[C@H]1CCC[C@@H]1C(=O)N[C@H]1CCC[C@@H]1C(N)=O)NC(=O)[C@H]1CCC[C@@H]1NC(=O)[C@H]1CCC[C@@H]1NC(=O)C[C@H](Cc1ccc(O)cc1)NC(=O)[C@H]1CCC[C@@H]1NC(=O)[C@H]1CCC[C@@H]1N [H12 YM]
[1]; H12 library
  Kd: 286 µM
[2]; H12 library
  Kd: 102 µM
[3]; H12 library
  Kd: 178 µM

## NC(=O)[C@H]1CCC[C@@H]1NC(=O)[C@H]1CCC[C@@H]1NC(=O)C[C@H](Cc1ccccc1)NC(=O)[C@H]1CCC[C@@H]1NC(=O)[C@H]1CCC[C@@H]1NC(=O)C[C@H](CO)NC(=O)[C@H]1CCC[C@@H]1NC(=O)[C@H]1CCC[C@@H]1N [H12 SF]
[2]; H12 library
  Kd: 189 µM
[3]; H12 library
  Kd: 153 µM

## NC(=O)CC[C@@H](CC(=O)N[C@H]1CCC[C@@H]1C(=O)N[C@H]1CCC[C@@H]1C(=O)N[C@H](CC(=O)N[C@H]1CCC[C@@H]1C(=O)N[C@H]1CCC[C@@H]1C(N)=O)Cc1ccccc1)NC(=O)[C@H]1CCC[C@@H]1NC(=O)[C@H]1CCC[C@@H]1N [H12 QF]
[2]; H12 library
  Kd: 461 µM
[3]; H12 library
  Kd: 181 µM

## CC[C@H](C)[C@@H](CC(=O)N[C@H]1CCC[C@@H]1C(=O)N[C@H]1CCC[C@@H]1C(N)=O)NC(=O)[C@H]1CCC[C@@H]1NC(=O)[C@H]1CCC[C@@H]1NC(=O)C[C@H](CO)NC(=O)[C@H]1CCC[C@@H]1NC(=O)[C@H]1CCC[C@@H]1N [H12 SI]
[2]; H12 library
  Kd: 419 µM
[3]; H12 library
  Kd: 252 µM

## NCCCC[C@@H](CC(=O)N[C@H]1CCCC[C@@H]1C(=O)N[C@H]1CCCC[C@@H]1C(=O)N[C@@H](CCC(N)=O)CC(=O)N[C@H]1CCCC[C@@H]1C(N)=O)NC(=O)[C@H]1CCCC[C@@H]1N [H14 KQ]
[2]; H14 library
  Kd: 173 µM
[3]; H14 library
  Kd: 307 µM

## C[C@@H](O)[C@@H](CC(=O)N[C@H]1CCC[C@@H]1C(=O)N[C@H]1CCC[C@@H]1C(=O)N[C@@H](CCCNC(=N)N)CC(=O)N[C@H]1CCC[C@@H]1C(=O)N[C@H]1CCC[C@@H]1C(N)=O)NC(=O)[C@H]1CCC[C@@H]1NC(=O)[C@H]1CCC[C@@H]1N [H12 TR]
[2]; H12 library
  Kd: 286 µM
[3]; H12 library
  Kd: 282 µM

## C[C@@H](O)[C@@H](CC(=O)N[C@H]1CCCC[C@@H]1C(N)=O)NC(=O)[C@H]1CCCC[C@@H]1NC(=O)[C@H]1CCCC[C@@H]1NC(=O)C[C@H](CCCNC(=N)N)NC(=O)[C@H]1CCCC[C@@H]1N [H14 RT]
[2]; H14 library
  Kd: 324 µM
[3]; H14 library
  Kd: 124 µM

## NC(=O)C[C@@H](CC(=O)N[C@H]1CCC[C@@H]1C(=O)N[C@H]1CCC[C@@H]1C(=O)N[C@H](CC(=O)N[C@H]1CCC[C@@H]1C(=O)N[C@H]1CCC[C@@H]1C(N)=O)Cc1ccccc1)NC(=O)[C@H]1CCC[C@@H]1NC(=O)[C@H]1CCC[C@@H]1N [H12 NF]
[2]; H12 library
  Kd: 368 µM
[3]; H12 library
  Kd: 162 µM

## NC(=O)[C@H]1CCCC[C@@H]1NC(=O)C[C@H](CC(=O)O)NC(=O)[C@H]1CCCC[C@@H]1NC(=O)[C@H]1CCCC[C@@H]1NC(=O)C[C@H](CO)NC(=O)[C@H]1CCCC[C@@H]1N [H14 SD]
[1]; H14 library
  Kd: 432 µM
[3]; H14 library
  Kd: 225 µM

## C[C@@H](O)[C@@H](CC(=O)N[C@H]1CCC[C@@H]1C(=O)N[C@H]1CCC[C@@H]1C(=O)N[C@H](CC(=O)N[C@H]1CCC[C@@H]1C(=O)N[C@H]1CCC[C@@H]1C(N)=O)Cc1ccccc1)NC(=O)[C@H]1CCC[C@@H]1NC(=O)[C@H]1CCC[C@@H]1N [H12 TF]
[2]; H12 library
  Kd: 185 µM
[3]; H12 library
  Kd: 90 µM

## NCCCC[C@@H](CC(=O)N[C@H]1CCCC[C@@H]1C(=O)N[C@H]1CCCC[C@@H]1C(=O)N[C@@H](CO)CC(=O)N[C@H]1CCCC[C@@H]1C(N)=O)NC(=O)[C@H]1CCCC[C@@H]1N [H14 KS]
[2]; H14 library
  Kd: 217 µM
[3]; H14 library
  Kd: 262 µM

## CSCC[C@@H](CC(=O)N[C@H]1CCC[C@@H]1C(=O)N[C@H]1CCC[C@@H]1C(N)=O)NC(=O)[C@H]1CCC[C@@H]1NC(=O)[C@H]1CCC[C@@H]1NC(=O)C[C@H](CCC(N)=O)NC(=O)[C@H]1CCC[C@@H]1NC(=O)[C@H]1CCC[C@@H]1N [H12 QM]
[3]; H12 library
  Kd: 364 µM

## CSCC[C@@H](CC(=O)N[C@H]1CCC[C@@H]1C(=O)N[C@H]1CCC[C@@H]1C(N)=O)NC(=O)[C@H]1CCC[C@@H]1NC(=O)[C@H]1CCC[C@@H]1NC(=O)C[C@H](CC(N)=O)NC(=O)[C@H]1CCC[C@@H]1NC(=O)[C@H]1CCC[C@@H]1N [H12 NM]
[3]; H12 library
  Kd: 378 µM

## CC[C@H](C)[C@@H](CC(=O)N[C@H]1CCC[C@@H]1C(=O)N[C@H]1CCC[C@@H]1C(N)=O)NC(=O)[C@H]1CCC[C@@H]1NC(=O)[C@H]1CCC[C@@H]1NC(=O)C[C@H](CC(N)=O)NC(=O)[C@H]1CCC[C@@H]1NC(=O)[C@H]1CCC[C@@H]1N [H12 NI]
[3]; H12 library
  Kd: 214 µM
